This passage reports inhibition results from article PMC8512147, “Multifunctional Small Molecules as Potential Anti-Alzheimer’s Disease Agents” (Molecules, 2021).

The target of test [1] is T1, Aβ1–42 peptide (Homo sapiens, UniProt P05067). Description: Inhibition of Cu^2+-induced Aβ1–42 aggregation, Thioflavin T fluorescence assay. The class given is biochemical. Set-up: Amyloid-β peptide (1–42) was purchased from GeneCust; purchased GeneCust. The following applies: compounds 80 μM, with copper 40 μM; ThT fluorescence; mean of two independent measurements in duplicate; read-out: Inhibition of Aβ1–42 Aggregation (%) Cu-Induced Aβ Aggr. Here is the method:
(§1) The studied compounds (1a–e) were tested in vitro to evaluate their activity as inhibitors of Aβ1-42 peptide aggregation, through the Thioflavin T (ThT) fluorescence assay. This method is based on the strong ability of the dye ThT to bind β-amyloid fibrils and oligomers through ionic and hydrophobic interactions, while its interaction with β-amyloid monomers is extremely weak. The intercalation of compounds in the β-sheet structure of amyloid protein may prevent fibrils aggregation and ThT binding, and it is evaluated by fluorimetry. The fluorescence emission measurements were performed after overnight incubation of the self-mediated or Cu^2+-induced Aβ fibril aggregates with the studied compounds.
(§2) The inhibition of β-amyloid (Aβ) aggregation was studied through the Th-T fluorescence assay, which was performed using a Varian Cary Eclipse fluorimeter at the following wavelengths: excitation (446 nm) and emission (485 nm). Amyloid-β peptide (1–42) was purchased from GeneCust as lyophilized powder stored at −20 °C.
(§3) The method used is based on thioflavin T (ThT) fluorescence emission, which depends on the interaction of this dye with Aβ fibrils. The assay is performed with the Aβ1–42 peptide sample, which was previously prepared by solubilization of its lyophilized powder in 1,1,1,3,3,3–hexafluoro-2-propanol (HFIP), an organic solvent useful to solubilize and monomerize the β-sheets protein aggregates. After 24 h, the solution was divided into Eppendorf tubes kept in ice, and then, HFIP was left to evaporate overnight (T = 25 °C). The resultant films were stored in the freezer. […] Compounds were dissolved in MeOH (1 mg/mL) and diluted with phosphate buffer to reach a ligand stock solution of 480 μM. Two different types of experiments were prepared in a final volume of 60 μL: control ligand assays (Aβ1–42 aggregation in the absence of inhibitor) and ligand assays (effect of ligand on Aβ1–42 aggregation). For each experiment, a blank sample without Aβ1–42 was used to monitor the effect of the compounds in fluorescence. To study the inhibition of aggregation in the presence of Cu^2+, which is known to promote it, an intermediate stock solution of CuCl2 in phosphate buffer (240 µM) was prepared. Then, it was aliquoted to obtain a final concentration of 40 µM in the samples. All samples were incubated in a water bath for 24 h at 37 °C. Then, 180 µL of ThT (5 µM) in glycine-NaOH buffer (50 mM, pH = 8.5) is added to each solution and 200 µL of it is placed in a 96-well plate (BD Falcon) to be read with the fluorimeter. After 5 min of incubation with ThT, fluorescence was measured at 446 nm (ʎ excitation) and 485 nm (ʎ emission).

The target in test [2] is T1, Aβ1–42 peptide. The test is described as follows: Inhibition of self-mediated Aβ1–42 aggregation, Thioflavin T fluorescence assay. In kind it is biochemical. The following applies: compounds 80 μM, without copper; ThT fluorescence; mean of two independent measurements in duplicate; read-out: Inhibition of Aβ1–42 Aggregation (%) Self-Aβ Aggr. The arrangement: Amyloid-β peptide (1–42) was purchased from GeneCust; purchased GeneCust. Here is the method: as §1, §2, §3

T1 sequence (P05067 672-713): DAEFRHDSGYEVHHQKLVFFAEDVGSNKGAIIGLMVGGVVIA

In general, inhibition refers to the relative decrease from the control value, in per cent. In the case of `COc1cc(/C=C/C(=O)NOCc2cccc(Cl)c2)ccc1O` [Compound 1d, (E)-N-((3-chlorobenzyl)oxy)-3-(4-hydroxy-3-methoxyphenyl)acrylamide], the results for the inhibition at 80 µM at Aβ1–42 peptide [1] and on Aβ1–42 peptide [2] were 76.1% and 34.1%, respectively.

On to `COc1cc(/C=C/C(=O)NOCc2ccccc2OC)ccc1O` [Compound 1a, (E)-3-(4-hydroxy-3-methoxyphenyl)-N-((2-methoxybenzyl)oxy)acrylamide], for which the values for the inhibition at 80 µM at Aβ1–42 peptide [1] and at Aβ1–42 peptide [2] were 79.6% and 42.6%, respectively.
